Results as given in publication PMC8699473, “An Easily Expandable Multi-Drug LC-MS Assay for the Simultaneous Quantification of 57 Oral Antitumor Drugs in Human Plasma” (Cancers, 2021).

Experiments:
[1] = Long-term stability in spiked pooled human plasma
[2] = parameters: method as in supplement references [1-55] as printed per drug; settings: minimum steady-state blood plasma concentration after multiple dose administration; ref supplement references [1-55] per drug; cited from earlier work
[3] = Freeze-thaw stability in spiked pooled human plasma; assay type: physicochemical
[4] = Short-term stability in spiked pooled human plasma (bench-top, 4 °C, 56 °C)
[5] = Autosampler stability of ready for injection samples; assay type: physicochemical, human

## O=C1CCC(N2C(=O)c3ccccc3C2=O)C(=O)N1 (stereo not drawn) [Thalidomide]
[1]; validation standard 2xLLOV
  Long-term stability, 1 month, -20°C Accuracy [%]: 75.6%
  Long-term stability, 1 month, -80°C Accuracy [%]: 74.9%
  Long-term stability, 2 month, -20°C Accuracy [%]: 58.1%
  Long-term stability, 2 month, -80°C Accuracy [%]: 79.7%
  Long-term stability, 3 month, -20°C Accuracy [%]: 50.7%
  Long-term stability, 3 month, -80°C Accuracy [%]: 79.8%
[1]; validation standard LLOV
  Long-term stability, 1 month, -20°C Accuracy [%]: 71.4%
  Long-term stability, 1 month, -80°C Accuracy [%]: 76.7%
  Long-term stability, 2 month, -20°C Accuracy [%]: 57.5%
  Long-term stability, 2 month, -80°C Accuracy [%]: 72.7%
  Long-term stability, 3 month, -20°C Accuracy [%]: 43.9%
  Long-term stability, 3 month, -80°C Accuracy [%]: 76.7%
[1]; validation standard MOV
  Long-term stability, 1 month, -20°C Accuracy [%]: 66.7%
  Long-term stability, 1 month, -80°C Accuracy [%]: 73.1%
  Long-term stability, 2 month, -20°C Accuracy [%]: 57.0%
  Long-term stability, 2 month, -80°C Accuracy [%]: 77.9%
  Long-term stability, 3 month, -20°C Accuracy [%]: 50.8%
  Long-term stability, 3 month, -80°C Accuracy [%]: 75.0%
[1]; validation standard ULOV
  Long-term stability, 1 month, -20°C Accuracy [%]: 68.6%
  Long-term stability, 1 month, -80°C Accuracy [%]: 66.3%
  Long-term stability, 2 month, -20°C Accuracy [%]: 42.5%
  Long-term stability, 2 month, -80°C Accuracy [%]: 79.5%
  Long-term stability, 3 month, -20°C Accuracy [%]: 33.5%
  Long-term stability, 3 month, -80°C Accuracy [%]: 78.0%
[2]
  cmin: 600 ng/mL
[3]; validation standard 2xLLOV
  Freeze-Thaw Accuracy [%]: 78.3%
[3]; validation standard LLOV
  Freeze-Thaw Accuracy [%]: 83.3%
[3]; validation standard MOV
  Freeze-Thaw Accuracy [%]: 74.7%
[3]; validation standard ULOV
  Freeze-Thaw Accuracy [%]: 72.8%
[4]; validation standard 2xLLOV
  Short-time stability (24h, 4°C, without daylight) Accuracy [%]: 64.9%
[4]; validation standard LLOV
  Short-time stability (24h, 4°C, without daylight) Accuracy [%]: 69.3%
[4]; validation standard MOV
  Short-time stability (24h, 4°C, without daylight) Accuracy [%]: 60.7%
[4]; validation standard ULOV
  Short-time stability (24h, 4°C, without daylight) Accuracy [%]: 55.2%
  Short-time stability (24h, RT, with daylight) Accuracy [%]: 1.7%
  Short-time stability (24h, RT, without daylight) Accuracy [%]: 1.7%
[5]; validation standard 2xLLOV
  Autosampler (24h, 4°C) Accuracy [%]: 102.3%
  Autosampler (72h, 4°C) Accuracy [%]: 101.6%
[5]; validation standard LLOV
  Autosampler (24h, 4°C) Accuracy [%]: 98.2%
  Autosampler (72h, 4°C) Accuracy [%]: 98.0%
[5]; validation standard MOV
  Autosampler (24h, 4°C) Accuracy [%]: 105.2%
  Autosampler (72h, 4°C) Accuracy [%]: 96.2%
[5]; validation standard ULOV
  Autosampler (24h, 4°C) Accuracy [%]: 96.9%
  Autosampler (72h, 4°C) Accuracy [%]: 97.8%

## CC(=O)Nc1cccc(-n2c(=O)n(C3CC3)c(=O)c3c(Nc4ccc(I)cc4F)n(C)c(=O)c(C)c32)c1 [Trametinib]
[1]; validation standard 2xLLOV
  Long-term stability, 1 month, -20°C Accuracy [%]: 105.1%
  Long-term stability, 1 month, -80°C Accuracy [%]: 110.9%
  Long-term stability, 2 month, -20°C Accuracy [%]: 123.9%
  Long-term stability, 2 month, -80°C Accuracy [%]: 104.2%
  Long-term stability, 3 month, -20°C Accuracy [%]: 105.5%
  Long-term stability, 3 month, -80°C Accuracy [%]: 103.8%
  Long-term stability, 6 weeks, 4°C, without daylight Accuracy [%]: 97.4%
[1]; validation standard LLOV
  Long-term stability, 1 month, -20°C Accuracy [%]: 111.6%
  Long-term stability, 1 month, -80°C Accuracy [%]: 101.9%
  Long-term stability, 2 month, -20°C Accuracy [%]: 111.6%
  Long-term stability, 2 month, -80°C Accuracy [%]: 103.4%
  Long-term stability, 3 month, -20°C Accuracy [%]: 96.6%
  Long-term stability, 3 month, -80°C Accuracy [%]: 104.8%
  Long-term stability, 6 weeks, 4°C, without daylight Accuracy [%]: 101.5%
[1]; validation standard MOV
  Long-term stability, 1 month, -20°C Accuracy [%]: 105.2%
  Long-term stability, 1 month, -80°C Accuracy [%]: 107.1%
  Long-term stability, 2 month, -20°C Accuracy [%]: 116.1%
  Long-term stability, 2 month, -80°C Accuracy [%]: 117.6%
  Long-term stability, 3 month, -20°C Accuracy [%]: 102.9%
  Long-term stability, 3 month, -80°C Accuracy [%]: 102.5%
  Long-term stability, 6 weeks, 4°C, without daylight Accuracy [%]: 103.9%
[1]; validation standard ULOV
  Long-term stability, 1 month, -20°C Accuracy [%]: 103.2%
  Long-term stability, 1 month, -80°C Accuracy [%]: 99.6%
  Long-term stability, 2 month, -20°C Accuracy [%]: 119.8%
  Long-term stability, 2 month, -80°C Accuracy [%]: 115.3%
  Long-term stability, 3 month, -20°C Accuracy [%]: 94.5%
  Long-term stability, 3 month, -80°C Accuracy [%]: 106.9%
  Long-term stability, 6 weeks, 4°C, without daylight Accuracy [%]: 94.7%
[2]
  cmin: 12.1 ng/mL
[3]; validation standard 2xLLOV
  Freeze-Thaw Accuracy [%]: 97.6%
[3]; validation standard LLOV
  Freeze-Thaw Accuracy [%]: 93.8%
[3]; validation standard MOV
  Freeze-Thaw Accuracy [%]: 102.5%
[3]; validation standard ULOV
  Freeze-Thaw Accuracy [%]: 97.0%
[4]; validation standard 2xLLOV
  Short-time stability (1h, 56°C) Accuracy [%]: 40.7%
  Short-time stability (24h, 4°C, without daylight) Accuracy [%]: 101.9%
  Short-time stability (24h, RT, with daylight) Accuracy [%]: 88.2%
  Short-time stability (24h, RT, without daylight) Accuracy [%]: 94.3%
[4]; validation standard LLOV
  Short-time stability (1h, 56°C) Accuracy [%]: 0.4%
  Short-time stability (24h, 4°C, without daylight) Accuracy [%]: 90.4%
  Short-time stability (24h, RT, with daylight) Accuracy [%]: 78.3%
  Short-time stability (24h, RT, without daylight) Accuracy [%]: 53.1%
[4]; validation standard MOV
  Short-time stability (1h, 56°C) Accuracy [%]: 52.0%
  Short-time stability (24h, 4°C, without daylight) Accuracy [%]: 115.0%
  Short-time stability (24h, RT, with daylight) Accuracy [%]: 101.6%
  Short-time stability (24h, RT, without daylight) Accuracy [%]: 99.7%
[4]; validation standard ULOV
  Short-time stability (1h, 56°C) Accuracy [%]: 47.5%
  Short-time stability (24h, 4°C, without daylight) Accuracy [%]: 108.2%
  Short-time stability (24h, RT, with daylight) Accuracy [%]: 96.8%
  Short-time stability (24h, RT, without daylight) Accuracy [%]: 92.2%
[5]; validation standard 2xLLOV
  Autosampler (24h, 4°C) Accuracy [%]: 105.8%
  Autosampler (72h, 4°C) Accuracy [%]: 101.8%
[5]; validation standard LLOV
  Autosampler (24h, 4°C) Accuracy [%]: 101.7%
  Autosampler (72h, 4°C) Accuracy [%]: 100.1%
[5]; validation standard MOV
  Autosampler (24h, 4°C) Accuracy [%]: 103.1%
  Autosampler (72h, 4°C) Accuracy [%]: 103.5%
[5]; validation standard ULOV
  Autosampler (24h, 4°C) Accuracy [%]: 97.7%
  Autosampler (72h, 4°C) Accuracy [%]: 97.0%

## CC1(C)CCC(CN2CCN(c3ccc(C(=O)NS(=O)(=O)c4ccc(NCC5CCOCC5)c([N+](=O)[O-])c4)c(Oc4cnc5[nH]ccc5c4)c3)CC2)=C(c2ccc(Cl)cc2)C1 [Venetoclax]
[1]; validation standard 2xLLOV
  Long-term stability, 1 month, -20°C Accuracy [%]: 102.9%
  Long-term stability, 1 month, -80°C Accuracy [%]: 104.0%
  Long-term stability, 2 month, -20°C Accuracy [%]: 104.9%
  Long-term stability, 2 month, -80°C Accuracy [%]: 111.9%
  Long-term stability, 3 month, -20°C Accuracy [%]: 85.1%
  Long-term stability, 3 month, -80°C Accuracy [%]: 101.9%
  Long-term stability, 6 weeks, 4°C, without daylight Accuracy [%]: 99.8%
[1]; validation standard LLOV
  Long-term stability, 1 month, -20°C Accuracy [%]: 111.0%
  Long-term stability, 1 month, -80°C Accuracy [%]: 109.1%
  Long-term stability, 2 month, -20°C Accuracy [%]: 105.5%
  Long-term stability, 2 month, -80°C Accuracy [%]: 115.7%
  Long-term stability, 3 month, -20°C Accuracy [%]: 101.9%
  Long-term stability, 3 month, -80°C Accuracy [%]: 99.3%
  Long-term stability, 6 weeks, 4°C, without daylight Accuracy [%]: 92.7%
[1]; validation standard MOV
  Long-term stability, 1 month, -20°C Accuracy [%]: 99.9%
  Long-term stability, 1 month, -80°C Accuracy [%]: 103.6%
  Long-term stability, 2 month, -20°C Accuracy [%]: 109.3%
  Long-term stability, 2 month, -80°C Accuracy [%]: 110.0%
  Long-term stability, 3 month, -20°C Accuracy [%]: 100.0%
  Long-term stability, 3 month, -80°C Accuracy [%]: 99.6%
  Long-term stability, 6 weeks, 4°C, without daylight Accuracy [%]: 99.5%
[1]; validation standard ULOV
  Long-term stability, 1 month, -20°C Accuracy [%]: 108.0%
  Long-term stability, 1 month, -80°C Accuracy [%]: 102.7%
  Long-term stability, 2 month, -20°C Accuracy [%]: 112.4%
  Long-term stability, 2 month, -80°C Accuracy [%]: 114.0%
  Long-term stability, 3 month, -20°C Accuracy [%]: 92.9%
  Long-term stability, 3 month, -80°C Accuracy [%]: 102.2%
  Long-term stability, 6 weeks, 4°C, without daylight Accuracy [%]: 95.2%
[2]
  cmin: 520 ng/mL
[3]; validation standard 2xLLOV
  Freeze-Thaw Accuracy [%]: 102.4%
[3]; validation standard LLOV
  Freeze-Thaw Accuracy [%]: 105.4%
[3]; validation standard MOV
  Freeze-Thaw Accuracy [%]: 97.8%
[3]; validation standard ULOV
  Freeze-Thaw Accuracy [%]: 101.9%
[4]; validation standard 2xLLOV
  Short-time stability (1h, 56°C) Accuracy [%]: 34.5%
  Short-time stability (24h, 4°C, without daylight) Accuracy [%]: 102.9%
  Short-time stability (24h, RT, with daylight) Accuracy [%]: 98.6%
  Short-time stability (24h, RT, without daylight) Accuracy [%]: 95.7%
[4]; validation standard LLOV
  Short-time stability (24h, 4°C, without daylight) Accuracy [%]: 88.8%
  Short-time stability (24h, RT, with daylight) Accuracy [%]: 112.5%
  Short-time stability (24h, RT, without daylight) Accuracy [%]: 102.7%
[4]; validation standard MOV
  Short-time stability (1h, 56°C) Accuracy [%]: 26.4%
  Short-time stability (24h, 4°C, without daylight) Accuracy [%]: 100.5%
  Short-time stability (24h, RT, with daylight) Accuracy [%]: 96.8%
  Short-time stability (24h, RT, without daylight) Accuracy [%]: 98.0%
[4]; validation standard ULOV
  Short-time stability (1h, 56°C) Accuracy [%]: 22.4%
  Short-time stability (24h, 4°C, without daylight) Accuracy [%]: 99.7%
  Short-time stability (24h, RT, with daylight) Accuracy [%]: 94.1%
  Short-time stability (24h, RT, without daylight) Accuracy [%]: 92.7%
[5]; validation standard 2xLLOV
  Autosampler (24h, 4°C) Accuracy [%]: 106.9%
  Autosampler (72h, 4°C) Accuracy [%]: 104.7%
[5]; validation standard LLOV
  Autosampler (24h, 4°C) Accuracy [%]: 106.3%
  Autosampler (72h, 4°C) Accuracy [%]: 103.3%
[5]; validation standard MOV
  Autosampler (24h, 4°C) Accuracy [%]: 100.0%
  Autosampler (72h, 4°C) Accuracy [%]: 102.3%
[5]; validation standard ULOV
  Autosampler (24h, 4°C) Accuracy [%]: 103.7%
  Autosampler (72h, 4°C) Accuracy [%]: 102.7%
